# Results taken from US20100168125A1, “INDOLIZINES AND AZA-ANALOG DERIVATIVES THEREOF AS CNS ACTIVE COMPOUNDS” (priority 2007, published 2010).
# Like-named read-outs stand apart in the source and are kept apart here.
# Columns and labels:
# 5-HT1A receptor = biological target: T1, 5-HT1A receptor (Sus scrofa, UniProt A0A4X1UTF5); test: radioligand binding, porcine cortical membranes, [^3H]8-OH-DPAT and [^3H]WAY 100635; conditions: porcine cortical membranes
# T1 construct: membrane preparations from porcine cortical material; from tissue; host or cells: porcine cerebral cortex membranes
# T1 sequence (A0A4X1UTF5 1-422): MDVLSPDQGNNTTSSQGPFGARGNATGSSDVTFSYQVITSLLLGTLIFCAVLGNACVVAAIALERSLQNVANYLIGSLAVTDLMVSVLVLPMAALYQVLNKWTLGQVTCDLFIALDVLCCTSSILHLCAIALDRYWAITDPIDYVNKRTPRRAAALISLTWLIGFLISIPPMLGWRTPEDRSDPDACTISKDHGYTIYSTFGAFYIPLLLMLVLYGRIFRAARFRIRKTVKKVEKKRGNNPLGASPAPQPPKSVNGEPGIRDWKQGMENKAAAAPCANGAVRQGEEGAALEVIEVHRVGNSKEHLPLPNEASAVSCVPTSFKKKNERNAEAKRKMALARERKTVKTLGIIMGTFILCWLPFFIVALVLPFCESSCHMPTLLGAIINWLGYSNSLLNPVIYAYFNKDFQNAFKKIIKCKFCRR
# 5-HT2 receptor = biological target: T2, 5-HT2 receptor (Sus scrofa, UniProt P50129); test: radioligand binding, porcine cortical membranes, [^3H]ketanserin; conditions: porcine cortical membranes, [^3H]ketanserin
# T2 construct: membrane preparations from porcine cortical material; from tissue; host or cells: porcine cerebral cortex membranes
# human D2long receptor = biological target: T3, human D2long receptor (Homo sapiens, UniProt P14416); test: radioligand binding with [^3H]spiperone, D2long; conditions: [^3H]spiperone, CHO membranes, mean of 2 to 4 experiments; read-out: Ki D2lo
# T3 construct: expressed in transfected cells; host or cells: Chinese hamster ovary (CHO) cells, membranes
# In short: (§1)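 Membranes from CHO cell lines expressing each human receptor subtype incubated with [^3H]spiperone. Test compounds spanned subnanomolar to micromolar concentrations in competition format.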
# human D4.4 receptor = biological target: T4, human D4.4 receptor (Homo sapiens, UniProt P21917); test: radioligand binding with [^3H]spiperone, D4.4; conditions: [^3H]spiperone, CHO membranes, mean of 2 to 4 experiments
# T4 construct: expressed in transfected cells; host or cells: Chinese hamster ovary (CHO) cells, membranes
# T4 sequence (P21917 1-419): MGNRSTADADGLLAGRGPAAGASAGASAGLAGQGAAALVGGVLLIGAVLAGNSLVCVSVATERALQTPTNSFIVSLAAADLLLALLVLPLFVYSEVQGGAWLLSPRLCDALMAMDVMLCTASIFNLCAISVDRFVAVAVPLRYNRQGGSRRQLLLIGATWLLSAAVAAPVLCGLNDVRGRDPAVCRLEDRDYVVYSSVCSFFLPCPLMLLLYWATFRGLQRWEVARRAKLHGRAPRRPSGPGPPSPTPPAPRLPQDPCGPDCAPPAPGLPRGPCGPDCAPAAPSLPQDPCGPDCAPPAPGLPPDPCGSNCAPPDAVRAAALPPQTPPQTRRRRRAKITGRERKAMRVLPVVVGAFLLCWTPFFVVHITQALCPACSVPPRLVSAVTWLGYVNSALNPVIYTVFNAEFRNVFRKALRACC
# In short: as §1
# human D3 receptor = biological target: T5, human D3 receptor (Homo sapiens, UniProt P35462); test: radioligand binding with [^3H]spiperone, D3; conditions: [^3H]spiperone, CHO membranes, mean of 2 to 4 experiments
# T5 construct: expressed in transfected cells; host or cells: Chinese hamster ovary (CHO) cells, membranes
# In short: as §1
# human D2short receptor = biological target: T6, human D2short receptor (Homo sapiens, UniProt P14416); test: radioligand binding with [^3H]spiperone, D2short; conditions: [^3H]spiperone, CHO membranes, mean of 2 to 4 experiments; read-out: Ki D2sh
# T6 construct: expressed in transfected cells; host or cells: Chinese hamster ovary (CHO) cells, membranes
# In short: as §1
# [1] = biological target: dopamine D2short receptor (Homo sapiens, UniProt P14416); test: [^35S]GTPγS-incorporation assay, intrinsic activity
# mice [2] = test: prepulse inhibition (PPI); assay type: in vivo; conditions: mice
# Description: (§2) Auditory startle response and prepulse (weak auditory stimulus) inhibition were used as a tool for assessment of deficiencies in sensor-motor gating, such as those seen in schizophrenia.
# (§3) Mice were placed in a PPI chamber for acclimation and then treated with different trials including null (no stimuli), startle (120 dB), startle plus prepulse (4, 8 and 12 dB over background noise) or prepulse alone (82 dB).
# (§4) Data was analyzed by repeated measures analysis of variance (ANOVA) followed by post-hoc analysis when appropriate. An effect was considered significant if p<0.05.
# mice [3] = test: auditory startle response (ASR); assay type: in vivo; design: unit not given here
# Description: as §2, §3, §4
# [4] = read-out: D2short: [^35S]GTPγS intrinsic activity, % activity of quinpirol
# dopamine D2short receptor, sequence (P14416 1-414 isoform P14416-2): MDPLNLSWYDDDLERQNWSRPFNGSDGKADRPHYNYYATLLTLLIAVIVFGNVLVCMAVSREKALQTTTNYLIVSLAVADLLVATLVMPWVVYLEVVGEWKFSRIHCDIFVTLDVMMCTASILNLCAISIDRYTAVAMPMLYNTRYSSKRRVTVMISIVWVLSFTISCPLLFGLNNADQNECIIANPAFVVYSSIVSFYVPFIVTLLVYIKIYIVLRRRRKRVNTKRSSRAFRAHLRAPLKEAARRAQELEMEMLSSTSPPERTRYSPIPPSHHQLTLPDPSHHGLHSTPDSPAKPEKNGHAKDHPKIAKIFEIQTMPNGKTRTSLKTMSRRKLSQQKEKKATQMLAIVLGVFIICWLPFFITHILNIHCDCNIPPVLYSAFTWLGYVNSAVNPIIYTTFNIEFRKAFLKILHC
# T6 sequence (P14416 1-414 isoform P14416-2): as above
# T5 sequence (P35462 whole entry): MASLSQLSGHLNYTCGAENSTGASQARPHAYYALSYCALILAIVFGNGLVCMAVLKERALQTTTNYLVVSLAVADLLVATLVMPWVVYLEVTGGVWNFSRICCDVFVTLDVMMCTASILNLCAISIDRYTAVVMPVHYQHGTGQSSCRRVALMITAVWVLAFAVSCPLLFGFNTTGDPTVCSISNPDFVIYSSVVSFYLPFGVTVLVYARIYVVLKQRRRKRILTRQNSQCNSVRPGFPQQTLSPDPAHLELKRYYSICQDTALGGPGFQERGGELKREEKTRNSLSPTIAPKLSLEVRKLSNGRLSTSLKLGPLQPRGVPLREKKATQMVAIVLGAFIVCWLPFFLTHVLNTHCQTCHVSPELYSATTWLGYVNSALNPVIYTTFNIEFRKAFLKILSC
# T2 sequence (P50129 whole entry): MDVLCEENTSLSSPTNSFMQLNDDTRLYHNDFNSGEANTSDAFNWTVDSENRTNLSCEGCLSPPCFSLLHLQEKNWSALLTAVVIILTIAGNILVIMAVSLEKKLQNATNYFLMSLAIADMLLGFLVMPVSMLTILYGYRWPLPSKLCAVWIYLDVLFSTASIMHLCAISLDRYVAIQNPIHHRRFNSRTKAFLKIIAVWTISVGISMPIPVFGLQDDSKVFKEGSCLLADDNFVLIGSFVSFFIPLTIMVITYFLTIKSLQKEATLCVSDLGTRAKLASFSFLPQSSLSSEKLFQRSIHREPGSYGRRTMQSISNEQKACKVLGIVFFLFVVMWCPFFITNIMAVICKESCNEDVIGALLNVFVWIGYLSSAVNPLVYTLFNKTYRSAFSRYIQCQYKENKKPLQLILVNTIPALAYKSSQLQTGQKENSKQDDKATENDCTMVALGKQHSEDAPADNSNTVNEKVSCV
# T3 sequence (P14416 whole entry): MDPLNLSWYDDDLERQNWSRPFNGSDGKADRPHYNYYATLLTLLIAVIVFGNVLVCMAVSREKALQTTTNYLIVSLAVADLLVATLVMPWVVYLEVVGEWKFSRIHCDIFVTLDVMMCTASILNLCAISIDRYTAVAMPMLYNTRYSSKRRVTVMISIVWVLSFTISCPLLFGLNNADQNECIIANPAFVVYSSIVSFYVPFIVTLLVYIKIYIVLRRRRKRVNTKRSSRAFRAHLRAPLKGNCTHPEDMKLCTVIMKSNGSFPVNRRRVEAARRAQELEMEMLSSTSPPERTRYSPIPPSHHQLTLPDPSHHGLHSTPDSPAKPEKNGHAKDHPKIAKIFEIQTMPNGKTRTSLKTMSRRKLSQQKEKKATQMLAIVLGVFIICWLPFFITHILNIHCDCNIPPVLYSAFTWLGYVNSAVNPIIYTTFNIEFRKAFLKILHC
Structure (SMILES),melting point,Ki (5-HT1A receptor),Ki (5-HT2 receptor),Ki (human D2long receptor),Ki (human D4.4 receptor),Ki (human D3 receptor),Ki (human D2short receptor),"Emax [1, 4]",PPI (mice [2]; dose 1 mg/kg),PPI (mice [2]; dose 3 mg/kg),PPI (mice [2]; dose 10 mg/kg),ASR (mice [3]; dose 1 mg/kg),ASR (mice [3]; dose 10 mg/kg),Emax ([1]; read-out: D2short: [^35S]GTPγS intrinsic activity)
"Clc1ccc(N2CCN(CCCCOc3ccn4nccc4c3)CC2)cc1 [Example E19, 5-[4-[4-(4-Chlorophenyl)piperazin-1-yl]butoxy]pyrazolo[1,5-a]pyridine]",125 °C,0.03 to 0.3 µM,0.301 to 3 µM,0.03 to 0.3 µM,0.03 to 0.3 µM,0.03 to 0.3 µM,0.03 to 0.3 µM,15 to 40%,–,–,–,–,–,–
"O=Cc1cnn2ccc(OCCCCN3CCN(c4cccc(Cl)c4Cl)CC3)cc12 [Example E21, 5-[4-[4-(2,3-Dichlorophenyl)piperazin-1-yl]butoxy]pyrazolo[1,5-a]pyridine-3-carbaldehyde]",–,0.03 to 0.3 µM,0.03 to 0.3 µM,< 0.03 µM,0.03 to 0.3 µM,< 0.03 µM,< 0.03 µM,15 to 40%,0,0,0,0,0,–
"O=Cc1cnn2ccc(COCCCN3CCN(c4cccc(Cl)c4Cl)CC3)cc12 [Example E14, 5-[3-[4-(2,3-Dichlorophenyl)piperazin-1-yl]propoxymethyl]pyrazolo[1,5-a]pyridine-3-carbaldehyde]",90 °C,< 0.03 µM,0.03 to 0.3 µM,< 0.03 µM,0.03 to 0.3 µM,< 0.03 µM,< 0.03 µM,15 to 40%,–,–,–,–,–,–
"Clc1cccc(N2CCN(CCCCOc3ccn4ncc(I)c4c3)CC2)c1Cl [Example E48, 5-[4-[4-(2,3-Dichlorophenyl)piperazin-1-yl]butoxy]3-iodo-pyrazolo[1,5-a]pyridine]",110 °C,0.301 to 3 µM,0.301 to 3 µM,0.03 to 0.3 µM,0.03 to 0.3 µM,< 0.03 µM,< 0.03 µM,< 15%,–,–,–,–,–,–
"O=Cc1cnn2ccc(OCCCCN3CCN(c4ccc(O)cc4)CC3)cc12 [Example E26, 5-[4-[4-(4-Hydroxyphenyl)piperazin-1-yl]butoxy]pyrazolo[1,5-a]pyridine-3-carbaldehyde]",164 °C,0.03 to 0.3 µM,0.301 to 3 µM,0.03 to 0.3 µM,0.03 to 0.3 µM,0.03 to 0.3 µM,< 0.03 µM,40 to 75%,–,–,–,–,–,–
"O=Cc1cnn2ccc(OCCCCN3CCN(c4cccc([N+](=O)[O-])c4)CC3)cc12 [Example E69, 5-[4-[4-(3-Nitrophenyl)piperazin-1-yl]butoxy]pyrazolo[1,5-a]pyridine-3-carbaldehyde]",178 °C,0.03 to 0.3 µM,0.301 to 3 µM,< 0.03 µM,0.03 to 0.3 µM,0.03 to 0.3 µM,< 0.03 µM,15 to 40%,–,–,–,–,–,–
"O=Cc1c(OCCCCN2CCN(c3ccccc3Cl)CC2)nn2ccccc12 [Example E6, 2-[4-[4-(2-Chlorophenyl)piperazin-1-yl]butoxy]pyrazolo[1,5-a]pyridine-3-carbaldehyde]",104 °C,< 0.03 µM,0.301 to 3 µM,< 0.03 µM,0.03 to 0.3 µM,< 0.03 µM,0.03 to 0.3 µM,–,–,–,–,–,–,15 to 40%
"COc1ccccc1N1CCN(CCCCOc2cccn3nccc23)CC1 [Example E8, 4-[4-[4-(2-Methoxyphenyl)piperazin-1-yl]butoxy]pyrazolo[1,5-a]pyridine]",74 °C,< 0.03 µM,0.301 to 3 µM,< 0.03 µM,< 0.03 µM,< 0.03 µM,< 0.03 µM,< 15%,–,–,–,–,–,–
